System: HeyA8 tumor model
Test: HeyA8 intraperitoneal ovarian cancer mouse model
Assay type: in vivo
Settings: all four groups compared; EP-100 0.2 mg/kg, olaparib 50 mg/kg

With `O=C(c1cc(Cc2n[nH]c(=O)c3ccccc23)ccc1F)N1CCN(C(=O)C2CC2)CC1` [olaparib] the “Body weights of the host mice at the end of the experiment” value was “did not differ significantly”.
